Measurements: ChEMBL document CHEMBL3112481, “Synthesis, nitric oxide release, and α-glucosidase inhibition of nitric oxide donating apigenin and chrysin derivatives” (Bioorg Med Chem, 2014)

Tests used:
[1] = Inhibition of alpha-glucosidase (unknown origin) assessed as hydrolysis of pNP-alpha-Glu into pNP measured for 10 mins by spectrophotometric analysis; set-up: species or system Homo sapiens
[2] = Induction of nitric oxide release at 10^-4 M after 1 hr by Griess assay in presence of L-cysteine relative to control; assay type: physicochemical; details: 100 µM
Homo sapiens = organism: Homo sapiens; assay: Potency index, ratio of apigenin IC50 to compound IC50 for alpha-glucosidase (unknown origin)

Row | IC50 [1] | Activity [2] | Ratio IC50 (Homo sapiens) | SMILES
1 | > 100 µM | – | – | CC(=O)Oc1cc(OCCO[N+](=O)[O-])cc2oc(-c3ccccc3)cc(=O)c12
2 | 3.71 µM | 1.237% | – | O=C(COc1ccc(-c2cc(=O)c3c(O)cc(OCC(=O)OCCO[N+](=O)[O-])cc3o2)cc1)OCCO[N+](=O)[O-]
3 | 30 µM | – | – | O=c1cc(-c2ccccc2)oc2cc(OCCO[N+](=O)[O-])cc(O)c12
4 | 5.04 µM | 0.24% | – | O=c1cc(-c2ccc(OCCCCO[N+](=O)[O-])cc2)oc2cc(OCCCCO[N+](=O)[O-])cc(O)c12
5 | 2.33 µM | 1.757% | 7.2 | O=C(COc1ccc(-c2cc(=O)c3c(O)cc(OCC(=O)OCCCCO[N+](=O)[O-])cc3o2)cc1)OCCCCO[N+](=O)[O-]
6 | 7.78 µM | 0.3% | – | O=c1cc(-c2ccc(OCCO[N+](=O)[O-])cc2)oc2cc(OCCO[N+](=O)[O-])cc(O)c12
7 | 16.8 µM | – | – | O=c1cc(-c2ccc(O)cc2)oc2cc(O)cc(O)c12 [APIGENIN]
8 | 24 µM | – | – | O=C(COc1cc(O)c2c(=O)cc(-c3ccccc3)oc2c1)OCCO[N+](=O)[O-]
9 | 14.1 µM | – | – | O=C(COc1cc(O)c2c(=O)cc(-c3ccccc3)oc2c1)OCCCCO[N+](=O)[O-]
10 | 564 µM | – | – | C[C@H]1O[C@H](O[C@H]2[C@H](O)[C@@H](O)[C@@H](O[C@H]3[C@H](O)[C@@H](O)C(O)O[C@@H]3CO)O[C@@H]2CO)[C@H](O)[C@@H](O)[C@@H]1N[C@H]1C=C(CO)[C@@H](O)[C@H](O)[C@H]1O (stereo partly drawn) [ACARBOSE]
11 | > 100 µM | – | – | CC(=O)Oc1cc(OCCCCO[N+](=O)[O-])cc2oc(-c3ccccc3)cc(=O)c12
12 | 3.39 µM | – | – | O=C(COc1cc(O)c2c(=O)cc(-c3ccccc3)oc2c1)OCCCCCCO[N+](=O)[O-]
13 | 18.7 µM | – | – | O=c1cc(-c2ccccc2)oc2cc(OCCCCO[N+](=O)[O-])cc(O)c12
14 | 21 µM | – | – | O=c1cc(-c2ccccc2)oc2cc(OCCCCCCO[N+](=O)[O-])cc(O)c12
15 | 77.7 µM | – | – | O=c1cc(-c2ccccc2)oc2cc(O)cc(O)c12 [CHRYSIN]
16 | 227 µM | – | – | OC[C@H]1NC[C@H](O)[C@@H](O)[C@@H]1O [DUVOGLUSTAT]
17 | 4.59 µM | 0.49% | – | O=c1cc(-c2ccc(OCCCCCCO[N+](=O)[O-])cc2)oc2cc(OCCCCCCO[N+](=O)[O-])cc(O)c12
18 | 2.57 µM | 1.147% | – | O=C(COc1ccc(-c2cc(=O)c3c(O)cc(OCC(=O)OCCCCCCO[N+](=O)[O-])cc3o2)cc1)OCCCCCCO[N+](=O)[O-]
19 | > 100 µM | – | – | CC(=O)Oc1cc(OCCCCCCO[N+](=O)[O-])cc2oc(-c3ccccc3)cc(=O)c12

Row | SMILES | IC50 [1] | Activity [2] | Ratio IC50 (Homo sapiens)
20 | O=[N+]([O-])OCC(CO[N+](=O)[O-])O[N+](=O)[O-] [NITROGLYCERIN] | > 180 µM | 5.14% | –
